# Laboratory results from patent EP4667466A1, “PROTAC DEGRADERS OF MLLT1 AND/OR MLLT3” (priority 2024, dated 2025).
# Target: T1, MLLT1 (Homo sapiens, UniProt Q03111)
# T1 construct: endogenous in cells; host or cells: MV4-11 (ATCC CRL-9591)
# T1 sequence (Q03111 1-559): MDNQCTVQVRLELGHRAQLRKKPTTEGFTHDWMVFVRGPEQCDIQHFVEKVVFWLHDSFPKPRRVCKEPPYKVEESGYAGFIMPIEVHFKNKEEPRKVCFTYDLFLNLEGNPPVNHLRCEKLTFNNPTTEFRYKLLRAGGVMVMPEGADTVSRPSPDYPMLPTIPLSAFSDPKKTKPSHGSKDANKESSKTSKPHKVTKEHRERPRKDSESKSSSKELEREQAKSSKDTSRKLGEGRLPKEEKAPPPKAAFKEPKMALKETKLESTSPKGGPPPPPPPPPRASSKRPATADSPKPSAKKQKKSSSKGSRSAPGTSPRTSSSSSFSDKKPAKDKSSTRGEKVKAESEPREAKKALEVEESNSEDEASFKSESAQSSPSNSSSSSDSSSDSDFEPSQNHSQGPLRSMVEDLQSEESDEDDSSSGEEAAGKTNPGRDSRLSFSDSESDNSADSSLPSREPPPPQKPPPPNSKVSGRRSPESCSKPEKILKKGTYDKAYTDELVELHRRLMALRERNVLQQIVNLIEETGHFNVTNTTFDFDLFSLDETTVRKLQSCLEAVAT
# Test: MLLT1 degradation assay (JESS automated chemiluminescent detection) in MV4-11 cells
# Format: cell-based
# Conditions: 24h, with respect to DMSO control
# Protocol: MLLT1 degradation efficacy of compounds was tested in an automated chemiluminescent detection system (JESS, Cat# 004-650). MV4-11 (#CRL-9591, ATCC) cells were seeded at a density of 1.2 million cells/well in a non-treated 6-well cell culture plate in 2.4 mL of complete medium (IMDM + 10% FBS + 1X Penicillin-Streptomycin). 10 mM DMSO stocks were prepared, and cells were treated with three concentrations of test compounds viz. 1000, 100 and 10 nM at a final DMSO concentration of 0.1% and incubated for 24h at 37°C, 5% CO2. Post incubation, cells were centrifuged, washed with HBSS and lysed in 70 uL of RIPA buffer supplemented with Protease inhibitors (sc-24948; Santa Cruz). Subsequently, protein estimation was done using BCA protein assay kit (23225; Pierce). 4 ug protein lysate (4 uL of 1ug/uL lysate) was loaded into each well of the JESS cartridge (SM-WO01; Bio-techne) and the JESS run was performed using 1:900 dilution of anti-human MLLT1 antibody (14893; Cell signaling technology) and 1:1200 dilution of anti-human GAPDH antibody (2118; Cell signaling technology) with anti-rabbit secondary detection module (DM-001; Bio-Techne). Post run, data were analysed using "Compass for SW" software for chemiluminescent detection. The peak area for each band was used for the calculation of MLLT1 degradation with respect to DMSO control. Data is shown as "MLLT1 % degradation". Category A: A ≥ 75% degradation Category B: 50% ≤ B < 75% degradation Category C: 25% ≤ C < 50% degradation Category D: D < 25% degradation Table 1
inhibition at 0.01 µM [%],inhibition at 0.1 µM [%],inhibition at 1 µM [%],Structure (SMILES)
≥ 75,≥ 75,≥ 75,"Cc1nn(C2CCN(CC3CCN(c4cc5c(cc4F)C(=O)N(C4CCC(=O)NC4=O)C5=O)CC3)CC2)c2cc(C(=O)Nc3cc4[nH]c([C@H]5CCCN5C)cc4cn3)ccc12 (stereo partly drawn) [Example 69, 1-(1-((1-(2-(2,6-dioxopiperidin-3-yl)-6-fluoro-1,3-dioxoisoindolin-5-yl)piperidin-4-yl)methyl)piperidin-4-yl)-3-methyl-N-(2-((R)-1-methylpyrrolidin-2-yl)-1H-pyrrolo[3,2-c]pyridin-6-yl)-1H-indazole-6-carboxamide]"
50 to 75,≥ 75,≥ 75,"Cc1nn(CCCCCCCCNc2cccc3c2C(=O)N(C2CCC(=O)NC2=O)C3=O)c2cc(C(=O)Nc3cc4[nH]c(C5CCCN5C)cc4cn3)ccc12 (racemic) [Example 2, rac-1-(8-{[2-(2,6-dioxopiperidin-3-yl)-1,3-dioxoisoindol-4-yl]amino}octyl)-3-methyl-N-[2-(1-methylpyrrolidin-2-yl)-1H-pyrrolo[3,2-c]pyridin-6-yl]indazole-6-carboxamide]"
≥ 75,≥ 75,≥ 75,"Cc1nn(CCCCCOCC#Cc2cccc3c2CN(C2CCC(=O)NC2=O)C3=O)c2cc(C(=O)Nc3cc4[nH]c([C@H]5CCCN5C)cc4cn3)ccc12 (stereo partly drawn) [Example 49, 1-(5-((3-(2-(2,6-dioxopiperidin-3-yl)-1-oxoisoindolin-4-yl)prop-2-yn-1-yl)oxy)pentyl)-3-methyl-N-(2-((R)-1-methylpyrrolidin-2-yl)-1H-pyrrolo[3,2-c]pyridin-6-yl)-1H-indazole-6-carboxamide]"
≥ 75,≥ 75,50 to 75,"Cc1nn(CC#Cc2cccc3c2CN(C2CCC(=O)NC2=O)C3=O)c2cc(C(=O)Nc3cc4[nH]c([C@H]5CCCN5C)cc4cn3)ccc12 (stereo partly drawn) [Example 72, 1-(3-(2-(2,6-dioxopiperidin-3-yl)-1-oxoisoindolin-4-yl)prop-2-yn-1-yl)-3-methyl-N (2-((R)-1-methylpyrrolidin-2-yl)-1H pyrrolo[3,2-c]pyridin-6-yl)-1H-indazole-6-carboxamide]"
50 to 75,≥ 75,≥ 75,"Cc1nn(CCCCCCCCNc2cccc3c2C(=O)N(C2CCC(=O)NC2=O)C3=O)c2cc(C(=O)Nc3cc4[nH]c([C@H]5CCCN5C)cc4cn3)ccc12 (stereo partly drawn) [Example 3, 1-(8-{[2-(2,6-dioxopiperidin-3-yl)-1,3-dioxoisoindol-4-yl]amino}octyl)-3-methyl-N-{2-[(2R)-1-methylpyrrolidin-2-yl]-1H-pyrrolo[3,2-c]pyridin-6-yl}indazole-6-carboxamide]"
50 to 75,≥ 75,≥ 75,"Cc1nn(CCCCCCC2CCN(c3cccc(C(=O)N[C@H]4CCC(=O)NC4=O)n3)CC2)c2cc(C(=O)Nc3cc4[nH]c([C@H]5CCCN5C)cc4cn3)ccc12 [Example 73, 1-(6-(1-(6-(((S)-2,6-dioxopiperidin-3-yl)carbamoyl)pyridin-2-yl)piperidin-4-yl)hexyl)-3-methyl-N-(2-((R)-1-methylpyrrolidin-2-yl)-1H-pyrrolo[3,2-c]pyridin-6-yl)-1H-indazole-6-carboxamide]"

# The next lines start with the compound.
Structure (SMILES),inhibition at 0.01 µM [%],inhibition at 0.1 µM [%],inhibition at 1 µM [%]
"Cc1nn(CCCCCCCC#Cc2ccc3c(c2)n(C)c(=O)n3C2CCC(=O)NC2=O)c2cc(C(=O)Nc3cc4[nH]c([C@H]5CCCN5C)cc4cn3)ccc12 (stereo partly drawn) [Example 39, 1-(9-(1-(2,6-dioxopiperidin-3-yl)-3-methyl-2-oxo-2,3-dihydro-1H benzo[d]imidazol-5-yl)non-8-yn-1-yl)-3-methyl-N-(2-((R)-1-methylpyrrolidin-2-yl)-1H-pyrrolo[3,2-c]pyridin-6-yl)-1H-indazole-6-carboxamide]",≥ 75,≥ 75,≥ 75
"Cc1nn(CCOCCN2CCN(c3cc4c(cc3F)C(=O)N(C3CCC(=O)NC3=O)C4=O)CC2)c2cc(C(=O)Nc3cc4[nH]c([C@H]5CCCN5C)cc4cn3)ccc12 (stereo partly drawn) [Example 24, 1-(2-(2-(4-(2-(2,6-dioxopiperidin-3-yl)-6-fluoro-1,3-dioxoisoindolin-5-yl)piperazin-1-yl)ethoxy)ethyl)-3-methyl-N-(2-((R)-1-methylpyrrolidin-2-yl)-1H-pyrrolo[3,2-c]pyridin-6-yl)-1H-indazole-6-carboxamide]",,50 to 75,≥ 75
"CN1CCC[C@@H]1c1cc2cnc(NC(=O)c3ccc4c(c3)c(N3CCC(CN5CCN(c6cc7c(cc6F)C(=O)N(C6CCC(=O)NC6=O)C7=O)CC5)CC3)nn4C)cc2[nH]1 (stereo partly drawn) [Example 6, 3-[4-({4-[2-(2,6-dioxopiperidin-3-yl)-6-fluoro-1,3-dioxoisoindol-5-yl]piperazin-1-yl}methyl)piperidin-1-yl]-1-methyl-N-{2-[(2R)-1-methylpyrrolidin-2-yl]-1H-pyrrolo[3,2-c]pyridin-6-yl}indazole-5-carboxamide]",25 to 50,50 to 75,≥ 75
"Cc1nn(CCCCCC#Cc2cccc3c2C(=O)N(C2CCC(=O)NC2=O)C3=O)c2cc(C(=O)Nc3cc4[nH]c([C@H]5CCCN5C)cc4cn3)ccc12 (stereo partly drawn) [Example 33, 1-(7-(2-(2,6-dioxopiperidin-3-yl)-1,3-dioxoisoindolin-4-yl)hept-6-yn-1-yl)-3-methyl-N-(2-((R)-1-methylpyrrolidin-2-yl)-1H-pyrrolo[3,2-c]pyridin-6-yl)-1H-indazole-6-carboxamide]",50 to 75,50 to 75,≥ 75
"Cc1nn(CCCCCCCC#Cc2cccc(C3CCC(=O)NC3=O)n2)c2cc(C(=O)Nc3cc4[nH]c([C@H]5CCCN5C)cc4cn3)ccc12 (stereo partly drawn) [Example 62, 1-(9-(6-(2,6-dioxopiperidin-3-yl)pyridin-2-yl)non-8-yn-1-yl)-3-methyl-N-(2-((R)-1-methylpyrrolidin-2-yl)-1H-pyrrolo [3,2-c]pyridin-6-yl)-1H indazole-6-carboxamide]",50 to 75,50 to 75,≥ 75
"Cc1c2ccc(C(=O)Nc3cc4[nH]c([C@H]5CCCN5C)cc4cn3)cc2nn1CCCCCCCCNc1cccc2c1C(=O)N(C1CCC(=O)NC1=O)C2=O (stereo partly drawn) [Example 5, 2-(8-((2-(2,6-dioxopiperidin-3-yl)-1,3-dioxoisoindolin-4-yl)amino)octyl)-3-methyl-N-(2-((R)-1-methylpyrrolidin-2-yl)-1H-pyrrolo[3,2-c]pyridin-6-yl)-2H-indazole-6-carboxamide]",50 to 75,50 to 75,25 to 50
"Cc1nn(CCCCCCCC#Cc2cccc3c2CN(C2CCC(=O)NC2=O)C3=O)c2cc(C(=O)Nc3cc4[nH]c([C@H]5CCCN5C)c(C#N)c4cn3)ccc12 (stereo partly drawn) [Example 66, N-(3-cyano-2-((R)-1-methylpyrrolidin-2-yl)-1H-pyrrolo[3,2-c]pyridin-6-yl)-1-(9-(2-(2,6-dioxopiperidin-3-yl)-1-oxoisoindolin-4-yl)non-8-yn-1-yl)-3-methyl-1H-indazole-6-carboxamide]",≥ 75,≥ 75,≥ 75
"Cc1nn(CCCCCC2CCN(c3cccc4c3C(=O)N(C3CCC(=O)NC3=O)C4=O)CC2)c2cc(C(=O)Nc3cc4[nH]c([C@H]5CCCN5C)cc4cn3)ccc12 (stereo partly drawn) [Example 29, 1-(5-(1-(2-(2,6-dioxopiperidin-3-yl)-1,3-dioxoisoindolin-4-yl)piperidin-4-yl)pentyl)-3-methyl-N-(2-((R)-1-methylpyrrolidin-2-yl)-1H-pyrrolo[3,2-c]pyridin-6-yl)-1H-indazole-6-carboxamide]",50 to 75,≥ 75,≥ 75
"Cc1nn(CCCC2CCN(c3ccc(C(=O)NC4CCC(=O)NC4=O)cc3F)CC2)c2cc(C(=O)Nc3cc4[nH]c([C@H]5CCCN5C)cc4cn3)ccc12 (stereo partly drawn) [Example 28, 1-(3-(1-(4-((2,6-dioxopiperidin-3-yl)carbamoyl)-2-fluorophenyl)piperidin-4-yl)propyl)-3-methyl-N-(2-((R)-1-methylpyrrolidin-2-yl)-1H-pyrrolo[3,2-c]pyridin-6-yl)-1H-indazole-6-carboxamide]",,25 to 50,25 to 50
